This note sets out measurements from PubChem BioAssay (NCI).

Holding throughout (assay): NCI tumour cell line growth inhibition, 48 h
The subject of assay [1] is BT-549 breast.
For assay [2], the system named is CCRF-CEM leukemia.
For assay [3], the system named is COLO 205 colon.
Assay [4] deals with HL-60(TB) leukemia.
For assay [5], the system named is HOP-62 NSCLC.
Assay [6] concerns HT29 colon.
Assay [7] relates to MDA-MB-231 breast.
Assay [8] has as its system SF-295 CNS.
Assay [9] concerns SK-OV-3 ovarian.
Assay [10] has as its system SR leukemia.

Structures are written as SMILES.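 In this assay, cells in 96-well plates receive the compound at five concentrations for 48 hours. Endpoints are linearly interpolated between the surrounding concentrations. Abbreviation: GI50, concentration required for 50% inhibition of growth. The concentration for full growth arrest is given as TGI.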 A value given as a limit tells only on which side of the number the result lay.

Regarding `O=[N+]([O-])c1ccc(N/N=C\c2cc(Cl)ccc2O)nc1`, the GI50 in assay [1] is 3.23 µM; in assay [2], 0.386 µM; in assay [3], 5.06 µM; in assay [4], 0.65 µM; in assay [5] it was 1.96 µM; in assay [6] it was 4.9 µM. The GI50 is 3.88 µM in assay [7], 2.15 µM in assay [8] and 4.25 µM in assay [9]. The TGI in assay [1] is 14.9 µM; in assay [2], greater than 100 µM; in [3] it was greater than 100 µM; in assay [4], 8.02 µM; in assay [5] it was 11.9 µM; in [6], greater than 100 µM. Further, the TGI turned out to be 33.1 µM in assay [7], 11.7 µM in assay [8] and 37.3 µM in assay [9].

With `C1CCC([PH+](C2CCCCC2)C2CCCCC2[PH+](C2CCCCC2)C2CCCCC2)CC1.[Au].[CH-]1CCCCC1C1CCCC[N-]1` (stereo unspecified), the GI50 is 0.294 µM in assay [1]; 0.426 µM in assay [2]; 0.272 µM in assay [4]; 0.314 µM in [5]; 0.256 µM in [8]; 0.275 µM in assay [9]. Moreover, the GI50 in assay [10] was 0.392 µM. Further, the TGI in assay [1] is 1.36 µM; in [2], greater than 100 µM; in assay [4], 0.826 µM; in assay [5], 1.89 µM; in [8], 0.901 µM; in [9], 1.14 µM. In [10], this compound registered a TGI greater than 100 µM.

With `COC(=O)Nc1nc2ccc(C(=O)c3ccc[nH]3)cc2[nH]1`, the TGI was greater than 100 µM in [1]; 12.7 µM in [2]; greater than 100 µM in [3]; 0.927 µM in assay [4]; greater than 95.9 µM in [5]; greater than 100 µM in assay [6]. In addition, the results for the TGI in assay [7], in assay [8] and in [9] were greater than 100 µM, greater than 100 µM and greater than 63 µM, respectively.

As to `COc1cc(C(=O)O)c([N+](=O)[O-])c(OC)c1OC`, the TGI in [1], in [3], in assay [5], in [6], in [7] and in [8] was greater than 100 µM throughout. Also, the TGI in assay [9] and in assay [10] was greater than 100 µM throughout.

In the case of `CC(Cc1ccc(Cl)cc1Cl)NO` (stereo unspecified), the TGI in assay [1], in assay [2], in assay [3], in assay [5], in assay [6] and in [7] was greater than 100 µM throughout. Also, the TGI in assay [8], in assay [9] and in [10] was greater than 100 µM in each case.

Consider `COc1cccc(NC(=O)c2sc3nc4c(cc3c2N)CCCC4)c1`, for which the GI50 in [1] was 0.497 µM; in assay [2], 0.347 µM; in assay [3], 3.83 µM; in assay [4], 0.228 µM; in [5], 0.59 µM; in [7] it was 3.88 µM. The GI50 in assay [8] is 0.481 µM; in assay [9] it was 0.473 µM; in [10] it was 0.217 µM. Moreover, the TGI is 25.4 µM in assay [1]; 19.2 µM in assay [2]; greater than 100 µM in assay [3]; 0.765 µM in [4]; 18.2 µM in [5]; 26.4 µM in assay [7]. Also, the TGI in assay [8] amounted to 14 µM; in assay [9] it was 29.4 µM; in assay [10] it was 12.7 µM.

As for `Cc1ccc(-c2c(C#N)c(N)nc(N3CCOCC3)c2C#N)o1`, the GI50 was 62.9 µM in assay [1]; 36.2 µM in assay [2]; 46.3 µM in assay [4]; 26.4 µM in assay [5]; 30.1 µM in assay [6]; 21 µM in assay [7]. Moreover, the TGI in assay [1] is greater than 100 µM; in assay [2], greater than 100 µM; in assay [4], greater than 100 µM; in assay [5] it was greater than 100 µM; in [6], greater than 100 µM; in [7], 80.7 µM.

Consider `ClC(=Nc1cccc2ccccc12)N(c1ccccc1)c1ccccc1`, for which the TGI in [1], in [5], in assay [6], in assay [7], in assay [8] and in [9] was greater than 100 µM each time. This compound gave a TGI in [10] greater than 100 µM.

`CC12OC(C(=O)C13CC3)C1C(=O)c3ccccc3C(=O)C12` (stereo unspecified): the GI50 in assay [1] was 36.2 µM; in assay [2], 13.9 µM; in assay [3] it was 89 µM; in assay [4] it was 26.8 µM; in assay [5] it was 27.8 µM; in assay [6], 48.7 µM. The GI50 is 46.8 µM in [7] and 25.3 µM in [9]. Also, the TGI in assay [1] is 76.9 µM; in assay [2], 42.5 µM; in [3], greater than 100 µM; in assay [4], 81.6 µM; in assay [5], 80 µM; in [6], greater than 100 µM. Moreover, the TGI is greater than 100 µM in [7] and 74.8 µM in assay [9].

On to `COc1cc2cc(Oc3ccc(NC(=O)Nc4cccc(C(F)(F)F)c4)cc3)c(C)nc2cc1OCCN1CCCCC1`, for which the GI50 in assay [1] is 1.78 µM; in [4] it was 1.94 µM; in assay [7], 1.36 µM; in assay [8], 1.8 µM; in [9], 2.06 µM; in assay [10] it was 0.479 µM. In addition, the TGI was 3.28 µM in [1]; 3.74 µM in [4]; 2.73 µM in [7]; 3.24 µM in assay [8]; 3.8 µM in assay [9]; 2.52 µM in assay [10].

Turning to `NC(N)=NC(CC(=O)O)c1ccccc1` (stereo unspecified), the TGI in assay [1], in [3], in assay [5], in assay [6], in assay [7] and in assay [8] was greater than 100 µM in each case. For the same compound, the TGI in assay [9] and in assay [10] was greater than 100 µM throughout.
